From PMC11239830, “Synthetic macrolides overcoming MLSBK-resistant pathogens” (Cell Discovery, 2024)
In brackets after ≈: the same amount, converted by molar mass. Read-outs that look alike come from different tables or passages of the source. Values belong to the compound of their own block, whether it stands above or below them.

Tests used:
H. influenzae = assay: MIC, broth microdilution; assay type: cell-based, Haemophilus influenzae
Protocol: (§1) MICs were determined by the microdilution method according to the Clinical and Laboratory Standards Institute guidelines. […] Finally, the 96-well plates were incubated at 37 °C for 16–20 h to observe and record the results. […] The assay for MICs was replicated at least three times.

S. pneumoniae = assay: MIC, broth microdilution; assay type: cell-based, Streptococcus pneumoniae
Protocol: as §1

M. catarrhalis = assay: MIC, broth microdilution; assay type: cell-based, Moraxella catarrhalis; details: M. catarrhalis 13L332, Ery-S
Protocol: MICs were determined by the microdilution method according to the Clinical and Laboratory Standards Institute guidelines. Briefly, the stock solution of compounds and the reference antibiotics were diluted 2-fold in sterile 96-well plates with cation-adjusted Mueller-Hinton broth, and mixed with CAMHB-containing bacteria to give a final inoculum of 5 × 10^5 CFU/mL for broth microdilution experiments. […] Finally, the 96-well plates were incubated at 37 °C for 16–20 h to observe and record the results. The lowest concentration at which no bacterial growth could be observed visually was identified as the MICs of the compounds. The assay for MICs was replicated at least three times.

S. pyogenes = assay: MIC, broth microdilution; assay type: cell-based, Streptococcus pyogenes
Protocol: as §1

S. aureus [1] = assay: MIC, broth microdilution; assay type: cell-based, Staphylococcus aureus
Protocol: as §1

S. aureus [2] = assay: MICs and MBCs against selected S. aureus isolates; assay type: cell-based, Staphylococcus aureus
[3] = Haemophilus influenzae, ATCC49247, H. influenzae ATCC49247, Azi-S, read-out: MIC
[4] = Streptococcus pneumoniae, ATCC49619, S. pneumoniae ATCC49619, Ery-S, read-out: MIC
[5] = Streptococcus pneumoniae, S. pneumoniae 05O173, c-ermB, mef, read-out: MIC
[6] = Streptococcus pneumoniae, S. pneumoniae 07P390, c-ermB, read-out: MIC
[7] = Moraxella catarrhalis, read-out: MIC
[8] = Streptococcus pyogenes, S. pyogenes 12-206, c-ermTR, read-out: MIC
[9] = Streptococcus pneumoniae, S. pneumoniae PU09, mef, read-out: MIC
[10] = Streptococcus pyogenes, S. pyogenes 01-968, i-ermTR (Table S5), read-out: MIC
[11] = Staphylococcus aureus, MRSA, strain 1, MRSA, i-ermA
[12] = Staphylococcus aureus, MRSA, strain 4, MRSA, i-ermA
[13] = Staphylococcus aureus, MRSA, strain 5, MRSA, i-ermC
[14] = Staphylococcus aureus, MRSA, strain 6, MRSA, c-ermB
[15] = Staphylococcus aureus, MRSA, strain 7, MRSA, c-ermB
[16] = Staphylococcus aureus, MRSA, strain 10, MRSA, c-ermB
[17] = Staphylococcus aureus, MRSA, strain 11, MRSA, c-ermB

MIC (H. influenzae; [3]): 2 µg/mL (≈ 2.03 µM)
MIC (S. pneumoniae; [4]): ≤ 0.008 µg/mL
MIC (S. pneumoniae; [5]): 8 µg/mL (≈ 8.14 µM)
MIC (S. pneumoniae; [6]): 0.25 µg/mL (≈ 0.254 µM)
MIC (M. catarrhalis; [7]): 0.5 µg/mL (≈ 0.509 µM)
MIC (S. pyogenes; [8]): 0.5 µg/mL (≈ 0.509 µM)
SMILES: CC[C@H]1OC(=O)[C@H](C)[C@@H](OC(=O)NCCCCOCCC#Cc2ccc3c(=O)c(C(=O)O)cn(C)c3c2)[C@H](C)[C@@H](O[C@@H]2O[C@H](C)C[C@H](N(C)C)[C@H]2O)[C@](C)(OC)C[C@@H](C)C(=O)[C@H](C)[C@H]2NC(=O)O[C@@]21C [96g]

MIC (H. influenzae; [3]): 8 µg/mL (≈ 8.48 µM)
MIC (S. pneumoniae; [4]): 0.25 µg/mL (≈ 0.265 µM)
MIC (S. pneumoniae; [5]): 128 µg/mL (≈ 136 µM)
MIC (S. pneumoniae; [6]): 4 µg/mL (≈ 4.24 µM)
MIC (M. catarrhalis; [7]): 0.5 µg/mL (≈ 0.53 µM)
MIC (S. pyogenes; [8]): 4 µg/mL (≈ 4.24 µM)
SMILES: CC[C@H]1OC(=O)[C@H](C)[C@@H](OC(=O)NCCCCCCC#Cc2ccc3c(=O)c(C(=O)O)cn(C)c3c2)[C@H](C)[C@@H](O[C@@H]2O[C@H](C)C[C@H](N(C)C)[C@H]2O)[C@](C)(O)C[C@@H](C)CN(C)[C@H](C)[C@@H](O)[C@]1(C)O [106g]

MIC (H. influenzae; H. influenzae ATCC49247, Azi-S): 8 µg/mL (≈ 8.45 µM)
MIC (S. pneumoniae; S. pneumoniae 05O173, c-ermB, mef): 128 µg/mL (≈ 135 µM)
MIC (S. pneumoniae; S. pneumoniae 07P390, c-ermB): 4 µg/mL (≈ 4.22 µM)
MIC (S. pneumoniae; S. pneumoniae ATCC49619, Ery-S): 0.25 µg/mL (≈ 0.264 µM)
MIC (M. catarrhalis): 1 µg/mL (≈ 1.06 µM)
MIC (S. pyogenes; S. pyogenes 12-206, c-ermTR): 8 µg/mL (≈ 8.45 µM)
SMILES: CC[C@H]1OC(=O)[C@H](C)[C@@H](OC(=O)NCCCCCCCCc2ccc3c(=O)c(C(=O)O)cn(C)c3c2)[C@H](C)[C@@H](O[C@@H]2O[C@H](C)C[C@H](N(C)C)[C@H]2O)[C@](C)(O)C[C@@H](C)CN(C)[C@H](C)[C@@H](O)[C@]1(C)O [107g]

SMILES: CC[C@H]1OC(=O)[C@H](C)[C@@H](O[C@H]2C[C@@](C)(OC)[C@@H](O)[C@H](C)O2)[C@H](C)[C@@H](O[C@@H]2O[C@H](C)C[C@H](N(C)C)[C@H]2O)[C@](C)(OC)C[C@@H](C)C(=O)[C@H](C)[C@@H](O)[C@]1(C)O [clarithromycin, reference compound]
MIC (H. influenzae; [3]): 16 µg/mL (≈ 21.4 µM)
MIC (S. aureus [1]; S. aureus 15B196, c-ermB): 512 µg/mL (≈ 685 µM)
MIC (S. aureus [1]; S. aureus ATCC29213): 0.25 µg/mL (≈ 0.334 µM)
MIC (S. aureus [1]; S. aureus PU32, Clinical, MRSA, i-ermA): 16 µg/mL (≈ 21.4 µM)
MIC (S. pneumoniae; S. pneumoniae 07P390, c-ermB): 512 µg/mL (≈ 685 µM)
MIC (S. pneumoniae; S. pneumoniae 21C315, Clinical, c-ermB): > 64 µg/mL
MIC (S. pneumoniae; S. pneumoniae 21D016, Clinical, c-ermB, mef): > 64 µg/mL
MIC (S. pneumoniae; S. pneumoniae 21D020, Clinical, c-ermB, mef): > 64 µg/mL
MIC (S. pneumoniae; S. pneumoniae 21M277, Clinical, c-ermB): > 64 µg/mL
MIC (S. pneumoniae; S. pneumoniae 21Q352, Clinical, i-MLSB): 16 µg/mL (≈ 21.4 µM)
MIC (S. pneumoniae; S. pneumoniae 21Q353, Clinical, i-MLSB): 8 µg/mL (≈ 10.7 µM)
MIC (S. pneumoniae; S. pneumoniae 21W257, Clinical, c-ermB, mef): > 64 µg/mL
MIC (S. pneumoniae; S. pneumoniae 21X435, Clinical): 0.12 µg/mL (≈ 0.16 µM)
MIC (S. pneumoniae; S. pneumoniae ATCC49619): 0.12 µg/mL (≈ 0.16 µM)
MIC (S. pneumoniae; [9]): 8 µg/mL (≈ 10.7 µM)
MIC (M. catarrhalis; [7]): 0.25 µg/mL (≈ 0.334 µM)
MIC (S. pyogenes; S. pyogenes 12-206, c-ermTR): 512 µg/mL (≈ 685 µM)
MIC (S. pyogenes; S. pyogenes 21C303, Clinical, c-ermB): > 64 µg/mL
MIC (S. pyogenes; S. pyogenes 21D184, Clinical, c-ermB): > 64 µg/mL
MIC (S. pyogenes; S. pyogenes 21D199, Clinical, c-ermB): > 64 µg/mL
MIC (S. pyogenes; S. pyogenes 21D200, Clinical, c-ermB): > 64 µg/mL
MIC (S. pyogenes; S. pyogenes 21K003, Clinical, mef): 2 µg/mL (≈ 2.67 µM)
MIC (S. pyogenes; S. pyogenes 21M063, Clinical, c-ermB): > 64 µg/mL
MIC (S. pyogenes; S. pyogenes 21W186, Clinical, c-ermTR): > 64 µg/mL
MIC (S. pyogenes; [10]): 4 µg/mL (≈ 5.35 µM)

SMILES: CC[C@H]1OC(=O)[C@@](C)(F)C(=O)[C@H](C)[C@@H](O[C@@H]2O[C@H](C)C[C@H](N(C)C)[C@H]2O)[C@](C)(OC)C[C@@H](C)C(=O)[C@H](C)[C@H]2N(CCCCn3cc(-c4cccc(N)c4)nn3)C(=O)O[C@]12C [solithromycin]
MIC (H. influenzae; [3]): 2 µg/mL (≈ 2.37 µM)
MIC (S. pneumoniae; [4]): 0.016 µg/mL (≈ 0.0189 µM)
MIC (S. pneumoniae; [6]): 0.03 µg/mL (≈ 0.0355 µM)
MIC (S. pneumoniae; [9]): 0.5 µg/mL (≈ 0.592 µM)
MIC (S. pyogenes; [10]): 0.016 µg/mL (≈ 0.0189 µM)
MIC (S. pyogenes; Streptococcus pyogenes, S. pyogenes 12-206, c-ermB (Table S5), read-out: MIC): 0.03 µg/mL (≈ 0.0355 µM)
MBC/MIC (S. aureus [2]; S. aureus ATCC29213): > 8
MIC (S. aureus [2]; Staphylococcus aureus, ATCC29213, S. aureus ATCC29213 (Table S10), read-out: MIC): 0.06 µg/mL (≈ 0.071 µM)
MBC (S. aureus [2]; [11]): > 0.5 µg/mL
MIC (S. aureus [2]; [11]): 0.06 µg/mL (≈ 0.071 µM)
MBC (S. aureus [2]; [12]): > 0.5 µg/mL
MIC (S. aureus [2]; [12]): 0.06 µg/mL (≈ 0.071 µM)
MBC (S. aureus [2]; [13]): 0.5 µg/mL (≈ 0.592 µM)
MIC (S. aureus [2]; [13]): 0.06 µg/mL (≈ 0.071 µM)
MBC (S. aureus [2]; [14]): > 2 µg/mL
MIC (S. aureus [2]; [14]): 0.25 µg/mL (≈ 0.296 µM)
MBC (S. aureus [2]; [15]): > 4 µg/mL
MIC (S. aureus [2]; [15]): 0.5 µg/mL (≈ 0.592 µM)
MBC (S. aureus [2]; [16]): > 2 µg/mL
MIC (S. aureus [2]; [16]): 0.25 µg/mL (≈ 0.296 µM)
MBC (S. aureus [2]; [17]): > 2 µg/mL
MIC (S. aureus [2]; [17]): 0.25 µg/mL (≈ 0.296 µM)
MIC (S. aureus [2]; Staphylococcus aureus, MSSA, strain 2, MSSA, i-ermC, read-out: MIC): 0.06 µg/mL (≈ 0.071 µM)
MIC (S. aureus [2]; Staphylococcus aureus, MSSA, strain 3, MSSA, i-ermC, read-out: MIC): 0.06 µg/mL (≈ 0.071 µM)
MBC (S. aureus [2]; Staphylococcus aureus, MSSA, strain 8, MSSA, c-ermB): 128 µg/mL (≈ 151 µM)
MIC (S. aureus [2]; Staphylococcus aureus, MSSA, strain 8, MSSA, c-ermB, read-out: MIC): 16 µg/mL (≈ 18.9 µM)
MBC (S. aureus [2]; Staphylococcus aureus, MSSA, strain 9, MSSA, c-ermB): > 256 µg/mL
MIC (S. aureus [2]; Staphylococcus aureus, MSSA, strain 9, MSSA, c-ermB, read-out: MIC): 32 µg/mL (≈ 37.9 µM)
MBC (S. aureus [2]; Staphylococcus aureus, S. aureus ATCC29213, read-out: MBC): > 0.5 µg/mL
MBC (S. aureus [2]; Staphylococcus aureus, strain 3, MSSA, i-ermC, read-out: MBC): > 0.5 µg/mL
bactericidal or bacteriostatic by MBC/MIC (S. aureus [2]; selected S. aureus isolates): bacteriostatic against all selected isolates
MBC/MIC (S. aureus [2]; strain 1, MRSA, i-ermA): > 8
MBC (S. aureus [2]; strain 2, MSSA, i-ermC): > 0.5 µg/mL
MBC/MIC (S. aureus [2]; strain 2, MSSA, i-ermC): > 8
MBC/MIC (S. aureus [2]; strain 3, MSSA, i-ermC): > 8
MBC/MIC (S. aureus [2]; strain 4, MRSA, i-ermA): > 8
MBC/MIC (S. aureus [2]; strain 5, MRSA, i-ermC): 8
MBC/MIC (S. aureus [2]; strain 6, MRSA, c-ermB): > 8
MBC/MIC (S. aureus [2]; strain 7, MRSA, c-ermB): > 8
MBC/MIC (S. aureus [2]; strain 8, MSSA, c-ermB): 8
MBC/MIC (S. aureus [2]; strain 9, MSSA, c-ermB): > 8
MBC/MIC (S. aureus [2]; strain 10, MRSA, c-ermB): > 8
MBC/MIC (S. aureus [2]; strain 11, MRSA, c-ermB): > 8
